Results taken from patent US9821173B2, “Anti-cancer agents and methods of use” (Case Western Reserve University, priority 2013, dated 2017).

Columns and labels:
Test in all cases: Kinase inhibition screening (Luceome)
Format in all cases: biochemical
Conditions in all cases: 10 μM
RPS6KA5 = target: T1, RPS6KA5 (Homo sapiens, UniProt O75582)
T1 construct: purchased Luceome Biotechnologies (Tucson, Ariz.)
Source text: (§1) It is well established that dysfunctional and unregulated kinase activity plays significant roles in cancer initiation and progression. […] Inspection of the data provides several interesting observations. […] These inhibitory effects at this concentration are consistent with their measured IC50 values that are also in the μM range (Table 1). In addition, several kinases display overlapping inhibitory responses to both gold(I) compounds. Many of these are of particular interest since they are involved in cancer initiation and/or progression. For example, the Aurora kinase family members, Aurora A and Aurora B, as well as the MARK2 and MARK3 kinases function during mitosis to regulate cell division. These kinases are important therapeutic targets as their activities are often deregulated in many types of cancers. Other kinases such as RPS6KA3 and MLK3 are involved in the MAP kinase and JNK pathways which are also important in cancer progression.

CAMK1 = target: T2, CAMK1 (Homo sapiens, UniProt Q14012)
T2 construct: purchased Luceome Biotechnologies (Tucson, Ariz.)
Source text: as §1

PIM2 = target: T3, PIM2 (Homo sapiens, UniProt Q9P1W9)
T3 construct: purchased Luceome Biotechnologies (Tucson, Ariz.)
Source text: as §1

RPS6KA4 = target: T4, RPS6KA4 (Homo sapiens, UniProt O75676)
T4 construct: purchased Luceome Biotechnologies (Tucson, Ariz.)
Source text: as §1

CAM1G = target: T5, CAM1G (Homo sapiens, UniProt Q96NX5)
T5 construct: purchased Luceome Biotechnologies (Tucson, Ariz.)
T5 sequence (Q96NX5 whole entry): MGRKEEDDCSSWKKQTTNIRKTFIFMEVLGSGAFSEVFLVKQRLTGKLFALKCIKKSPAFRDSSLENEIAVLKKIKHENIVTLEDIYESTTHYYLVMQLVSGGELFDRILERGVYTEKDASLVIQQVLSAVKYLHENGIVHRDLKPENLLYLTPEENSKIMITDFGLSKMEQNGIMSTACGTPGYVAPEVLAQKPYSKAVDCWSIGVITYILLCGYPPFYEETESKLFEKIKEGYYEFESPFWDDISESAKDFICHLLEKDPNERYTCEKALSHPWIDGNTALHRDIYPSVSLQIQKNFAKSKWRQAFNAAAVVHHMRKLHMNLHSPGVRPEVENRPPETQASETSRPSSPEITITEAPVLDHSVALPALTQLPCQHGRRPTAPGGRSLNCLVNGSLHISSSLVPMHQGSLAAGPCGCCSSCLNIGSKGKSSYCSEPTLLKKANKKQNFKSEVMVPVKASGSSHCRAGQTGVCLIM
Source text: as §1

VEGFR2 = target: T6, VEGFR2 (Homo sapiens, UniProt P35968)
T6 construct: purchased Luceome Biotechnologies (Tucson, Ariz.)
Source text: as §1

CLK2 = target: T7, CLK2 (Homo sapiens, UniProt P49760)
T7 construct: purchased Luceome Biotechnologies (Tucson, Ariz.)
Source text: as §1

DDR2 = target: T8, DDR2 (Homo sapiens, UniProt Q16832)
T8 construct: purchased Luceome Biotechnologies (Tucson, Ariz.)
T8 sequence (Q16832 22-855): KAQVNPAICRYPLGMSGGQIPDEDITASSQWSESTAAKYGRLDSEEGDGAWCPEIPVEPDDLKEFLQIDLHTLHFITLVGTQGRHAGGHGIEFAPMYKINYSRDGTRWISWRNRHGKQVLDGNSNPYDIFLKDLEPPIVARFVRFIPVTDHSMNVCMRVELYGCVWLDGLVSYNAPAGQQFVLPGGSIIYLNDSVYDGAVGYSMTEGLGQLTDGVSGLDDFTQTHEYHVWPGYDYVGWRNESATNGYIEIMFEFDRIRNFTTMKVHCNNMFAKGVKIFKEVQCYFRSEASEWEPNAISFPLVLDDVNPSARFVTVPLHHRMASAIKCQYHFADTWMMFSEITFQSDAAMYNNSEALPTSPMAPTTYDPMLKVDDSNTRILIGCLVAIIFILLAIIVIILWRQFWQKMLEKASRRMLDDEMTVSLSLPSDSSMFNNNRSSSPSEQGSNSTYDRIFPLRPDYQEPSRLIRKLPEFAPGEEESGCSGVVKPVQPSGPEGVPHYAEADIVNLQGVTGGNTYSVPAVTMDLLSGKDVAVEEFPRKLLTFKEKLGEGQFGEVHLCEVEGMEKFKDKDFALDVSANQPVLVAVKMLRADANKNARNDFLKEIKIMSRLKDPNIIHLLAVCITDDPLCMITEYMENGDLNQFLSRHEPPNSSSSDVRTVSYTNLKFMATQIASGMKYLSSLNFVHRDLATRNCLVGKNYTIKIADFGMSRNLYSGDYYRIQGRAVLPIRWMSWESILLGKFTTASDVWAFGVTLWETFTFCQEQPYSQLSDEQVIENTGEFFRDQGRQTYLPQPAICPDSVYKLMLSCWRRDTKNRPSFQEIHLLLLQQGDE
Source text: as §1

PKD2 = target: T9, PKD2 (Homo sapiens, UniProt Q9BZL6)
T9 construct: purchased Luceome Biotechnologies (Tucson, Ariz.)
Source text: as §1

PAK1 = target: T10, PAK1 (Homo sapiens, UniProt Q13153)
T10 construct: purchased Luceome Biotechnologies (Tucson, Ariz.)
Source text: as §1

FLT1 = target: T11, FLT1 (Homo sapiens, UniProt P17948)
T11 construct: purchased Luceome Biotechnologies (Tucson, Ariz.)
Source text: as §1

TNK2 = target: T12, TNK2 (Homo sapiens, UniProt Q07912)
T12 construct: purchased Luceome Biotechnologies (Tucson, Ariz.)
Source text: as §1

SNF1LK2 = target: T13, SNF1LK2 (Homo sapiens, UniProt Q9H0K1)
T13 construct: purchased Luceome Biotechnologies (Tucson, Ariz.)
Source text: as §1

CLK1 = target: T14, CLK1 (Homo sapiens, UniProt P49759)
T14 construct: purchased Luceome Biotechnologies (Tucson, Ariz.)
Source text: as §1

CAMK1D = target: T15, CAMK1D (Homo sapiens, UniProt Q8IU85)
T15 construct: purchased Luceome Biotechnologies (Tucson, Ariz.)
Source text: as §1

AURKA = target: T16, AURKA (Homo sapiens, UniProt O14965)
T16 construct: purchased Luceome Biotechnologies (Tucson, Ariz.)
Source text: as §1

AURKC = target: T17, AURKC (Homo sapiens, UniProt Q9UQB9)
T17 construct: purchased Luceome Biotechnologies (Tucson, Ariz.)
Source text: as §1

PDK1 = target: T18, PDK1 (Homo sapiens, UniProt O15530)
T18 construct: purchased Luceome Biotechnologies (Tucson, Ariz.)
Source text: as §1

PRS6KA1 = target: T19, PRS6KA1 (Homo sapiens, UniProt Q15418)
T19 construct: purchased Luceome Biotechnologies (Tucson, Ariz.)
Source text: as §1

FGFR2 = target: T20, FGFR2 (Homo sapiens, UniProt P21802)
T20 construct: purchased Luceome Biotechnologies (Tucson, Ariz.)
Source text: as §1

MST2 = target: T21, MST2 (Homo sapiens, UniProt Q13188)
T21 construct: purchased Luceome Biotechnologies (Tucson, Ariz.)
T21 sequence (Q13188 whole entry): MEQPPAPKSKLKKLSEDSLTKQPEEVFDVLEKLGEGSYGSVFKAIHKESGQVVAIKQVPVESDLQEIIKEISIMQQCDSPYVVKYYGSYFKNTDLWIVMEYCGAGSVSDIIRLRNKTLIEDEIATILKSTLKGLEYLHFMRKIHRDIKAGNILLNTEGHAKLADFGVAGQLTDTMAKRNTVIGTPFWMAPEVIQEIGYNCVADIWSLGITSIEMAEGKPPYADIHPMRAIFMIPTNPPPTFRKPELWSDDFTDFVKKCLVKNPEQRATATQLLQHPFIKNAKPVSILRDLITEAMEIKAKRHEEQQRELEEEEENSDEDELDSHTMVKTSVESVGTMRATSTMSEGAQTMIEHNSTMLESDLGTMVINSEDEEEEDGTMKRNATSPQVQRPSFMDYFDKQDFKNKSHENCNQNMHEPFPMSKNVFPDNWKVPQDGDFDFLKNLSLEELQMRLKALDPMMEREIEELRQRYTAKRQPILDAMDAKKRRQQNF
Source text: as §1

YES1 = target: T22, YES1 (Homo sapiens, UniProt P07947)
T22 construct: purchased Luceome Biotechnologies (Tucson, Ariz.)
Source text: as §1

AMPK-α1 = target: T23, AMPK-α1 (Homo sapiens, UniProt Q13131)
T23 construct: purchased Luceome Biotechnologies (Tucson, Ariz.)
Source text: as §1

SRC = target: T24, SRC (Homo sapiens, UniProt P12931)
T24 construct: purchased Luceome Biotechnologies (Tucson, Ariz.)
Source text: as §1

AKT2 = target: T25, AKT2 (Homo sapiens, UniProt P31751)
T25 construct: purchased Luceome Biotechnologies (Tucson, Ariz.)
T25 sequence (P31751 whole entry): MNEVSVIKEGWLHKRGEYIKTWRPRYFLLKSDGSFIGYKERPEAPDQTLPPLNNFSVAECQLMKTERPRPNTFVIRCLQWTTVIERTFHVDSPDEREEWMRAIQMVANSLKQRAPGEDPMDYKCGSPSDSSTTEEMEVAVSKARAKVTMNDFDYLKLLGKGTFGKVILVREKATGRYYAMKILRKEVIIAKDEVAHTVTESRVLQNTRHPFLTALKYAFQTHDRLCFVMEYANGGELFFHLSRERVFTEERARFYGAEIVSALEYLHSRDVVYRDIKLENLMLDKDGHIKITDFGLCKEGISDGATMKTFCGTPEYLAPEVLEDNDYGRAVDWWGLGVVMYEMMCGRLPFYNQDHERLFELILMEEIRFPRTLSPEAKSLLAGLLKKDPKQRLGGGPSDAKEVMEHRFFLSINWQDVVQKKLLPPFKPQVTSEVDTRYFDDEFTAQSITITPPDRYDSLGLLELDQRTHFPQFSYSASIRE
Source text: as §1

PKC-η = target: T26, PKC-η (Homo sapiens, UniProt P24723)
T26 construct: purchased Luceome Biotechnologies (Tucson, Ariz.)
Source text: as §1

PIM1 = target: T27, PIM1 (Homo sapiens, UniProt P11309)
T27 construct: purchased Luceome Biotechnologies (Tucson, Ariz.)
T27 sequence (P11309 whole entry): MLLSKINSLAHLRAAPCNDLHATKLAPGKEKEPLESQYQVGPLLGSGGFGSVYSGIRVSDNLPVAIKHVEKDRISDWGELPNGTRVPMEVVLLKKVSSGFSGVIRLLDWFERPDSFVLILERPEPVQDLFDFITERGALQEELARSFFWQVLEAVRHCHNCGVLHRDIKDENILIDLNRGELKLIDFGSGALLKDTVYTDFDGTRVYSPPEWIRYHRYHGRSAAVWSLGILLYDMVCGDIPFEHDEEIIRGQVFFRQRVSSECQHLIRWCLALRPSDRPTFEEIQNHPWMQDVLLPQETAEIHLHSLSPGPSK
Source text: as §1

PKAC-α = target: T28, PKAC-α (Homo sapiens, UniProt P17612)
T28 construct: purchased Luceome Biotechnologies (Tucson, Ariz.)
Source text: as §1

MLK1 = target: T29, MLK1 (Homo sapiens, UniProt P80192)
T29 construct: purchased Luceome Biotechnologies (Tucson, Ariz.)
Source text: as §1

MARK3 = target: T30, MARK3 (Homo sapiens, UniProt P27448)
T30 construct: purchased Luceome Biotechnologies (Tucson, Ariz.)
T30 sequence (P27448 whole entry): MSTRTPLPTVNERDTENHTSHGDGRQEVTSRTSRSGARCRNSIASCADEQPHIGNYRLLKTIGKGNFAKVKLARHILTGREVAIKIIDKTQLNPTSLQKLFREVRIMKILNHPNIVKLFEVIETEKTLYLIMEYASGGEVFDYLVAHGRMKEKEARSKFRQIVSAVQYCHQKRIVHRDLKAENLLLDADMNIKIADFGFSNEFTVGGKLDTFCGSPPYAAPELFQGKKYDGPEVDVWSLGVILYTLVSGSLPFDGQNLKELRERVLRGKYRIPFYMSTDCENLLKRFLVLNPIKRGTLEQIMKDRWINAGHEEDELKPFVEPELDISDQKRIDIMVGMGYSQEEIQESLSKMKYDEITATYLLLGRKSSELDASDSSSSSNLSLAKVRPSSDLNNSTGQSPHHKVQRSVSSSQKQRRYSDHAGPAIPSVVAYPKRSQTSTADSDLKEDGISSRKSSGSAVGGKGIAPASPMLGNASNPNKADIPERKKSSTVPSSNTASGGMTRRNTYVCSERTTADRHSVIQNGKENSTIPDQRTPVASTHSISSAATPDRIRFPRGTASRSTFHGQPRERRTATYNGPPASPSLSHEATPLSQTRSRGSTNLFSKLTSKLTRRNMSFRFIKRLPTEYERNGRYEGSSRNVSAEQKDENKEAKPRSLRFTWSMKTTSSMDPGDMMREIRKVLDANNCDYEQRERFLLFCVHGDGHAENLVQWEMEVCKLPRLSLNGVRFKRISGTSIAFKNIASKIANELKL
Source text: as §1

SLK = target: T31, SLK (Homo sapiens, UniProt Q9H2G2)
T31 construct: purchased Luceome Biotechnologies (Tucson, Ariz.)
Source text: as §1

SYK = target: T32, SYK (Homo sapiens, UniProt P43405)
T32 construct: purchased Luceome Biotechnologies (Tucson, Ariz.)
Source text: as §1

PKC-δ = target: T33, PKC-δ (Homo sapiens, UniProt Q05655)
T33 construct: purchased Luceome Biotechnologies (Tucson, Ariz.)
T33 sequence (Q05655 whole entry): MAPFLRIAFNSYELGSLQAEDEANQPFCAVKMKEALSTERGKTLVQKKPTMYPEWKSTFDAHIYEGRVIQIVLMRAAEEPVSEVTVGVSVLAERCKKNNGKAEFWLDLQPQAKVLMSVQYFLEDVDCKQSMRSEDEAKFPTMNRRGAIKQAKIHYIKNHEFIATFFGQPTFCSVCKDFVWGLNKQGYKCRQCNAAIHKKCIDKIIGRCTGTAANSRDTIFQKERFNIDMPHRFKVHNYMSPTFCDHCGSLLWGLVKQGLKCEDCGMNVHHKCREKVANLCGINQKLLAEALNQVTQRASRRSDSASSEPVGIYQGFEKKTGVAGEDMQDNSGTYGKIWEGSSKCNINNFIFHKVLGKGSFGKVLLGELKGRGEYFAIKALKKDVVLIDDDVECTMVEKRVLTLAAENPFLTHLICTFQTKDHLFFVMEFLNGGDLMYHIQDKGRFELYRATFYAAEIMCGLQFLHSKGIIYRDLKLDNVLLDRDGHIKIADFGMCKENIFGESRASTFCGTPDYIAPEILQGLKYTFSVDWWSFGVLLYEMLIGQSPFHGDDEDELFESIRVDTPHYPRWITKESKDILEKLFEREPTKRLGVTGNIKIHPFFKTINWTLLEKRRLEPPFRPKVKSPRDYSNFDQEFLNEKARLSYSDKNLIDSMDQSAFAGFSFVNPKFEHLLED
Source text: as §1

PKC-ε = target: T34, PKC-ε (Homo sapiens, UniProt Q02156)
T34 construct: purchased Luceome Biotechnologies (Tucson, Ariz.)
Source text: as §1

AKT1 = target: T35, AKT1 (Homo sapiens, UniProt P31749)
T35 construct: purchased Luceome Biotechnologies (Tucson, Ariz.)
Source text: as §1

CAMKK1 = target: T36, CAMKK1 (Homo sapiens, UniProt Q8N5S9)
T36 construct: purchased Luceome Biotechnologies (Tucson, Ariz.)
Source text: as §1

PKG1 = target: T37, PKG1 (Homo sapiens, UniProt Q13976)
T37 construct: purchased Luceome Biotechnologies (Tucson, Ariz.)
Source text: as §1

AMPK-α2 = target: T38, AMPK-α2 (Homo sapiens, UniProt P54646)
T38 construct: purchased Luceome Biotechnologies (Tucson, Ariz.)
Source text: as §1

RPS6KA3 = target: T39, RPS6KA3 (Homo sapiens, UniProt P51812)
T39 construct: purchased Luceome Biotechnologies (Tucson, Ariz.)
T39 sequence (P51812 whole entry): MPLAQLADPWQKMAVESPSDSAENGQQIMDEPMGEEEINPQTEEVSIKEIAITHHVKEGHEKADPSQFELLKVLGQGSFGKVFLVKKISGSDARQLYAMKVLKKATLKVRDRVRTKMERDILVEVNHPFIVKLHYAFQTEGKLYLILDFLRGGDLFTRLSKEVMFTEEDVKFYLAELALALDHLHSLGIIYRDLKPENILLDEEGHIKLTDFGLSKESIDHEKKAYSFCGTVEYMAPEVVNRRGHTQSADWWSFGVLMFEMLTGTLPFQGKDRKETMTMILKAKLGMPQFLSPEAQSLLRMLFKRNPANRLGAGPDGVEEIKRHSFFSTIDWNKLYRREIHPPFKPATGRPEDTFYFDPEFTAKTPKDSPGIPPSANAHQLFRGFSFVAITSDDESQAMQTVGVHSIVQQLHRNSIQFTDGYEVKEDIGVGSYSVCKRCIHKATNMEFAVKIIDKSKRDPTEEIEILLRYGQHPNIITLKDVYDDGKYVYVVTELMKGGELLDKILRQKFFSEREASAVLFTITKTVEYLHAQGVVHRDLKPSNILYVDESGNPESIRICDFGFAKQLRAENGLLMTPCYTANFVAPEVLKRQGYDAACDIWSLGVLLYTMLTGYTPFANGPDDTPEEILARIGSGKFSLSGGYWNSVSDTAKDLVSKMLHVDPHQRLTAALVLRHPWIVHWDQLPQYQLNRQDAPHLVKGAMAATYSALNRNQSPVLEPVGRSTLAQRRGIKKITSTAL
Source text: as §1

CC(C)(C)OC(=O)n1ccc2c[c]([Au-][P+](c3ccccc3)(c3ccccc3)c3ccccc3)ccc21 [Compound 3, 5-{Triphenylphosphine aurate(I)}-tert-butyl1H-indole-1-carboxylate]
% Inhibition RPS6KA5 (RPS6KA5): 0%
% Inhibition CAMK1 (CAMK1): 0%
% Inhibition PIM2 (PIM2): 0%
% Inhibition RPS6KA4 (RPS6KA4): 1.0%
% Inhibition CAM1G (CAM1G): 0%
% Inhibition VEGFR2 (VEGFR2): 0%
% Inhibition CLK2 (CLK2): 0%
% Inhibition DDR2 (DDR2): 0%
% Inhibition PKD2 (PKD2): 0%
% Inhibition PAK1 (PAK1): 0%
% Inhibition FLT1 (FLT1): 18.9%
% Inhibition TNK2 (TNK2): 0%
% Inhibition SNF1LK2 (SNF1LK2): 0%
% Inhibition CLK1 (CLK1): 0%
% Inhibition CAMK1D (CAMK1D): 0%
% Inhibition AURKA (AURKA): 26.7%
% Inhibition AURKC (AURKC): 23.9%
% Inhibition PDK1 (PDK1): 17.4%
% Inhibition PRS6KA1 (PRS6KA1): 0%
% Inhibition FGFR2 (FGFR2): 5.1%
% Inhibition MST2 (MST2): 0%
% Inhibition YES1 (YES1): 0%
% Inhibition AMPK-α1 (AMPK-α1): 0%
% Inhibition SRC (SRC): 14.3%
% Inhibition AKT2 (AKT2): 25.8%
% Inhibition PKC-η (PKC-η): 3.2%
% Inhibition PIM1 (PIM1): 0%
% Inhibition PKAC-α (PKAC-α): 0%
% Inhibition MLK1 (MLK1): 32.5%
% Inhibition MARK3 (MARK3): 6.5%
% Inhibition SLK (SLK): 0%
% Inhibition SYK (SYK): 21.6%
% Inhibition PKC-δ (PKC-δ): 0%
% Inhibition PKC-ε (PKC-ε): 0%
% Inhibition AKT1 (AKT1): 0%
% Inhibition CAMKK1 (CAMKK1): 0%
% Inhibition PKG1 (PKG1): 5.4%
% Inhibition AMPK-α2 (AMPK-α2): 0%
% Inhibition RPS6KA3 (RPS6KA3): 16.7%

CC(C)(C)OC(=O)n1ccc2c[c]([Au-][P+](C3CCCCC3)(C3CCCCC3)C3CCCCC3)ccc21 [Compound 4, 5-{Tricyclohexylphosphine aurate(I)}-tert-butyl1H-indole-1-carboxylate]
% Inhibition RPS6KA5 (RPS6KA5): 5.0%
% Inhibition CAMK1 (CAMK1): 0%
% Inhibition PIM2 (PIM2): 8.7%
% Inhibition RPS6KA4 (RPS6KA4): 21.8%
% Inhibition CAM1G (CAM1G): 0%
% Inhibition VEGFR2 (VEGFR2): 5.8%
% Inhibition CLK2 (CLK2): 0%
% Inhibition DDR2 (DDR2): 0%
% Inhibition PKD2 (PKD2): 3.8%
% Inhibition PAK1 (PAK1): 0%
% Inhibition FLT1 (FLT1): 9.4%
% Inhibition TNK2 (TNK2): 2.2%
% Inhibition SNF1LK2 (SNF1LK2): 32.9%
% Inhibition CLK1 (CLK1): 0%
% Inhibition CAMK1D (CAMK1D): 0%
% Inhibition AURKA (AURKA): 41.7%
% Inhibition AURKC (AURKC): 35.0%
% Inhibition PDK1 (PDK1): 24.3%
% Inhibition PRS6KA1 (PRS6KA1): 0%
% Inhibition FGFR2 (FGFR2): 0%
% Inhibition MST2 (MST2): 0%
% Inhibition YES1 (YES1): 31.7%
% Inhibition AMPK-α1 (AMPK-α1): 0%
% Inhibition SRC (SRC): 5.2%
% Inhibition AKT2 (AKT2): 33.6%
% Inhibition PKC-η (PKC-η): 0%
% Inhibition PIM1 (PIM1): 10.6%
% Inhibition PKAC-α (PKAC-α): 12.4%
% Inhibition MLK1 (MLK1): 42.2%
% Inhibition MARK3 (MARK3): 34%
% Inhibition SLK (SLK): 19.6%
% Inhibition SYK (SYK): 40.7%
% Inhibition PKC-δ (PKC-δ): 3.8%
% Inhibition PKC-ε (PKC-ε): 5.9%
% Inhibition AKT1 (AKT1): 0%
% Inhibition CAMKK1 (CAMKK1): 0%
% Inhibition PKG1 (PKG1): 3.2%
% Inhibition AMPK-α2 (AMPK-α2): 0%
% Inhibition RPS6KA3 (RPS6KA3): 34.9%
